According to patent EP0353678B1, “FR-901154 and FR-901155 substances, a process for their production” (priority 1988, dated 1990):

Experiments:
[1] = Solubility (physical and chemical properties); type: physicochemical
Description: (23)/(D) [formula] : -74° (c = 1.8, CHCl₃) (8) Ultraviolet Absorption Spectrum: end absorption (9) Infrared Absorption Spectrum: [drawing 4] 3570, 3500, 2940, 2880, 2820, 1740, 1710, 1700, 1640, 1460, 1450, 1380, 1350, 1320, 1280, 1230, 1190, 1170, 1140, 1100, 1090, 1050, 1040, 1000, 990, 940, 910 cm⁻¹ (10) ¹³C Nuclear Magnetic Resonance Spectrum: δ(ppm, CDCl₃, 100MHz): [formula] [formula] (11) ¹H Nuclear Magnetic Resonance Spectrum: the chart of which being shown in Figure 3, (12) Thin Layer Chromatography: […]

[2] = test system: Aspergillus niger IFO 4417; assay: Antimicrobial activity against fungi, serial agar dilution method in Sabouraud agar; type: cell-based; parameters: unit not given here; details: 30°C for 24 hours
Description: Antimicrobial activities of the FR-901154 and FR-901155 Substances Antimicrobial activities of the FR-901154 and FR-901155 substances against various fungi were determined by a serial agar dilution method in a Sabouraud agar. Minimum inhibitory concentrations (MIC) were expressed in terms of »g/ml after incubation at 30°C for 24 hours. […]

Row | Compound | Solubility ([1]; methanol, ethanol, acetone, ethyl acetate, chloroform, diethyl ether, benzene and acetonitrile) | Solubility ([1]; n-hexane and petroleum ether) | Solubility ([1]; water) | MIC Value [2]
1 | CCCC1C=C(C)CC(C)CC(OC)C2OC(O)(C(=O)C(=O)N3CCCCC3C(=O)OC(C(C)=CC3CCC(O)C(OC)C3)C(C)C(O)CC1=O)C(C)CC2OC (stereo not shown) [FR-901156, 1,14-dihydroxy-12-[2-(4-hydroxy-3-methoxycyclohexyl)-1-methylvinyl]-23,25-dimethoxy-13,19,21,27-tetramethyl-17-propyl-11,28-dioxa-4-azatricyclo[22.3.1.0^4,9]octacos-18-ene-2,3,10,16-tetraone] | Soluble | Sparingly Soluble | Insoluble | 
2 | C=CCC1/C=C(\C)CC(C)CC(OC)C2OC(O)(C(=O)C(=O)N3CCCCC3C(=O)OC(/C(C)=C/C3CCC(O)C(O)C3)C(C)C(O)CC1=O)C(C)CC2OC (stereo not shown) [FR-901154] |  |  |  | 0.025
